The values below come from ChEMBL document CHEMBL1144453, “Ligand binding analysis for human alpha5beta1 integrin: strategies for designing new alpha5beta1 integrin antagonists” (J Med Chem, 2005).

One test has as its target Integrin alpha-V/beta-3 (Homo sapiens, UniProt P05106+P06756). The test is described as follows: Inhibition of fibrinogen binding to alphaV-beta3 integrin receptor. The class given is protein-complex assay.
Test [1] concerns the target Integrin alpha-IIb/beta-3 (Homo sapiens, UniProt P05106+P08514). The test is described as follows: Inhibition of alpha IIb beta3 integrin receptor in human platelet rich plasma.
For a further test, the target named is Integrin alpha-5/beta-1 (Homo sapiens, UniProt P05556+P08648). The test is described as follows: Inhibition of alpha5-beta1 integrin receptor in ELISA. The test is classed as protein-complex assay. In general terms: In an ELISA, binding on a coated surface is turned into a signal by an enzyme label.
Chain of Integrin alpha-5/beta-1 (P05556 21-798 limits assumed): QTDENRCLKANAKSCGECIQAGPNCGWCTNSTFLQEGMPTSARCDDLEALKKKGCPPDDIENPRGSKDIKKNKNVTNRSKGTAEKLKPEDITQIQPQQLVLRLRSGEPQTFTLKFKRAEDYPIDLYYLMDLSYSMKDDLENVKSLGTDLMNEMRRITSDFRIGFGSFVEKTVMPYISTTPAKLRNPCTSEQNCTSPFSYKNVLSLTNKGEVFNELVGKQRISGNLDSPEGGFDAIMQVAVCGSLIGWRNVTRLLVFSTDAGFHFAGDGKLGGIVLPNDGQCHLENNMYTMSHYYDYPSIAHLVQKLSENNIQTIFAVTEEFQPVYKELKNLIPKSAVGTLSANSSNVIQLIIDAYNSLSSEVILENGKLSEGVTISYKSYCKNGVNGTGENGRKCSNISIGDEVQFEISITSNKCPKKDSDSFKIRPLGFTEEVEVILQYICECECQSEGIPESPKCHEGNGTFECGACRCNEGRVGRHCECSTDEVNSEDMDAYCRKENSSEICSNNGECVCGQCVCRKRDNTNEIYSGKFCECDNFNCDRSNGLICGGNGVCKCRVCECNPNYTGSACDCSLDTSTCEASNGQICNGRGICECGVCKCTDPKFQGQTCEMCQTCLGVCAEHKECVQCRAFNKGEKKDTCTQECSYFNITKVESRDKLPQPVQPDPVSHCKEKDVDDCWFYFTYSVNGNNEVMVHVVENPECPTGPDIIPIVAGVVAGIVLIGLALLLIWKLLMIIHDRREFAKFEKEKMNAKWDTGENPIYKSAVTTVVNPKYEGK
Chain of Integrin alpha-5/beta-1 (P08648 42-894 limits assumed): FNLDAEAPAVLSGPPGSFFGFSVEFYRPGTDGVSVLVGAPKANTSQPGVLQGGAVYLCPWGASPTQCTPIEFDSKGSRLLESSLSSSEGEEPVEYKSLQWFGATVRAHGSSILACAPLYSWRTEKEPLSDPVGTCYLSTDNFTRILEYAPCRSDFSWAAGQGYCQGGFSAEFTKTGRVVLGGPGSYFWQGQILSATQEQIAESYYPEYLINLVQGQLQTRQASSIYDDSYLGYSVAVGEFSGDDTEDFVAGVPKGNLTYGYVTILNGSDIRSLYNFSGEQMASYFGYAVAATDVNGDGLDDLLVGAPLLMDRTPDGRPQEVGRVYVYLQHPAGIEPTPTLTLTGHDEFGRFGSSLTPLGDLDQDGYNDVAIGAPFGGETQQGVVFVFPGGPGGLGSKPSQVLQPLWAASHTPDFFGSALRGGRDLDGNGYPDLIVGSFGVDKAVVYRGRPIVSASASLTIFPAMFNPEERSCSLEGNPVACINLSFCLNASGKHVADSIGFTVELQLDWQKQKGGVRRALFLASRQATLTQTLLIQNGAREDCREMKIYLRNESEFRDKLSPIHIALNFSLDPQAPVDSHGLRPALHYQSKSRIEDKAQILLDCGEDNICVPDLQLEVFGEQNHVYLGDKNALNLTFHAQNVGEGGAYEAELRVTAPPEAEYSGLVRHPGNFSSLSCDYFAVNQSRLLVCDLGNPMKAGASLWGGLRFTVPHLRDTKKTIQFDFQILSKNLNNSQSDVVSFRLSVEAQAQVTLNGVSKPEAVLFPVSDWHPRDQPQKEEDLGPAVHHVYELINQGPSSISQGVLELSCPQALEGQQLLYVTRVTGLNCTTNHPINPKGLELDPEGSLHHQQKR
Chain of Integrin alpha-5/beta-1 (P08648 895-1049 limits assumed): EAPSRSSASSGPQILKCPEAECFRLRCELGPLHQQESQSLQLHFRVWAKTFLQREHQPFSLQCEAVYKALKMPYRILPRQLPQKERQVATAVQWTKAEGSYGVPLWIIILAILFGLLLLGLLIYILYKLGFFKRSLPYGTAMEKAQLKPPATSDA

Chain of Integrin alpha-V/beta-3 (P05106 27-788 limits assumed): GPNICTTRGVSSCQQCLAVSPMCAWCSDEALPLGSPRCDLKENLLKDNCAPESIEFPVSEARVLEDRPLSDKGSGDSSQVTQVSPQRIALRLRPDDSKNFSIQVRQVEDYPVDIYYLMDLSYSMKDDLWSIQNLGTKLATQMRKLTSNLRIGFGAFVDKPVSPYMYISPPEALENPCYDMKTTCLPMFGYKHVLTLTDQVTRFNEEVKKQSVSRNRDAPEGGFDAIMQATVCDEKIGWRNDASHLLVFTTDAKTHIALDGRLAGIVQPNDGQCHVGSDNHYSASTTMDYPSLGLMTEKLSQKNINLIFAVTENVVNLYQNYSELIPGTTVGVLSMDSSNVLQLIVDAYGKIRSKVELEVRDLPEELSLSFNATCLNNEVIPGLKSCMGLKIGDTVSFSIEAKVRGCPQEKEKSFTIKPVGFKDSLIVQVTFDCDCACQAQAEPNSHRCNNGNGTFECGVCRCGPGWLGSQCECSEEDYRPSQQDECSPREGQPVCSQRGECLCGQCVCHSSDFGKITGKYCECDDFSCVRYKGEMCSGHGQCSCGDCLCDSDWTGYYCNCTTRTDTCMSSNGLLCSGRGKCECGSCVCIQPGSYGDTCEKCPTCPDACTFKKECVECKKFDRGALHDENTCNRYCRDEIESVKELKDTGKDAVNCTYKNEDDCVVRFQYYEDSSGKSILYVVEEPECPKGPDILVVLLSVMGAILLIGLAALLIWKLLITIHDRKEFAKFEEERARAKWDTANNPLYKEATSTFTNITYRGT
Chain of Integrin alpha-V/beta-3 (P06756 31-889 limits assumed): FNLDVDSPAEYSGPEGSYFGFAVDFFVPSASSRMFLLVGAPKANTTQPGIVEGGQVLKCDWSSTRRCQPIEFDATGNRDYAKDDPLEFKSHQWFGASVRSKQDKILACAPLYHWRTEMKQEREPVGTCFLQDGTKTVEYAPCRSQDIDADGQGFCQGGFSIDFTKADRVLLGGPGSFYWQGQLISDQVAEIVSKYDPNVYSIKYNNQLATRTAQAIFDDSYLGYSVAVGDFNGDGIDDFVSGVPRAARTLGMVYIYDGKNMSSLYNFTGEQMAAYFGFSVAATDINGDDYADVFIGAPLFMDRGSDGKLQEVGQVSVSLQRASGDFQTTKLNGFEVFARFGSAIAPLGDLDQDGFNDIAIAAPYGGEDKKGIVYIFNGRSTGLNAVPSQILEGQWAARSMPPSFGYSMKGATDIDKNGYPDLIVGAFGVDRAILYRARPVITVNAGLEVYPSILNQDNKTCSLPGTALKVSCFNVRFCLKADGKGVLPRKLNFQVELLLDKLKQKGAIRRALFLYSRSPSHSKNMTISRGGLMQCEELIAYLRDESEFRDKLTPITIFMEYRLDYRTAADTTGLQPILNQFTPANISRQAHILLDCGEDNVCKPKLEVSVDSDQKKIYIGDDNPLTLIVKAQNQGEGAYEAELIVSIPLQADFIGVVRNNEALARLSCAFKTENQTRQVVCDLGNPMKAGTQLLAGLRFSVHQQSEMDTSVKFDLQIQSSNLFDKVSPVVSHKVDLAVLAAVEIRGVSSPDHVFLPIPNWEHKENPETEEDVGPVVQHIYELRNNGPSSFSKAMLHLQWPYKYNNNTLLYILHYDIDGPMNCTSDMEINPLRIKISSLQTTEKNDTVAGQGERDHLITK
Chain of Integrin alpha-V/beta-3 (P06756 891-1048 limits assumed): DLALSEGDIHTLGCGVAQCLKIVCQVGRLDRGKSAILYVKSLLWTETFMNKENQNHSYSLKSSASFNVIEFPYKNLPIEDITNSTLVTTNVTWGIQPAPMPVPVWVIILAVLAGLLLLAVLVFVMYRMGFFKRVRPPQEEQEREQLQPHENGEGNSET
Chain of Integrin alpha-IIb/beta-3 (P05106 27-788 limits assumed): as the sequence (P05106 27-788 limits assumed) above
Chain of Integrin alpha-IIb/beta-3 (P08514 32-887 limits assumed): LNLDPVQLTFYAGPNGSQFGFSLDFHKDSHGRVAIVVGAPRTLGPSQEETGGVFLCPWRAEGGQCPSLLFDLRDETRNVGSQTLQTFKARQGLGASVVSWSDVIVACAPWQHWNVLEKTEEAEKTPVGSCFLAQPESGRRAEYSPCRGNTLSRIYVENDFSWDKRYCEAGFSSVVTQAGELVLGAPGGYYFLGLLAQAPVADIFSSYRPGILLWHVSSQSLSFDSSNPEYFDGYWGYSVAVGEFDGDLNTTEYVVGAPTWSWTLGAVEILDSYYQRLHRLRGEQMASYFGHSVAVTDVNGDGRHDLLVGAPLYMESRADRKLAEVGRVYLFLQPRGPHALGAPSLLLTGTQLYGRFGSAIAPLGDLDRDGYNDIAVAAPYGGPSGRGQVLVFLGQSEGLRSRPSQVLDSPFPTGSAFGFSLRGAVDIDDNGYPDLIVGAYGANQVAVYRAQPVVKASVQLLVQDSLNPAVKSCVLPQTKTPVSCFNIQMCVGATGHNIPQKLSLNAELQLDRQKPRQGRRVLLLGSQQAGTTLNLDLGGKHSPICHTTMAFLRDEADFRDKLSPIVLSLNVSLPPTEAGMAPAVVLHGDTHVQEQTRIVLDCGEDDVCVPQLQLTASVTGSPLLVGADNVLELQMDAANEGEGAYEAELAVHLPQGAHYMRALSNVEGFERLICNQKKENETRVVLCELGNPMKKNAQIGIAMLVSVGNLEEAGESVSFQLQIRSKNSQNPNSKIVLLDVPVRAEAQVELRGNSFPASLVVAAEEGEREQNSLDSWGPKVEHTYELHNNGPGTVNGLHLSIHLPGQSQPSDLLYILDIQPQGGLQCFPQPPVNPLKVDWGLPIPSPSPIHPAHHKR
Chain of Integrin alpha-IIb/beta-3 (P08514 891-1039 limits assumed): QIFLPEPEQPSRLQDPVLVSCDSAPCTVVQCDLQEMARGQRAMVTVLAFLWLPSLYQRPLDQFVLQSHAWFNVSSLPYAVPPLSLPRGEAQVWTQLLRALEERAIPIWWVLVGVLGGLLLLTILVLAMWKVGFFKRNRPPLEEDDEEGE

Usually IC50 stands for the concentration at which inhibition is half-maximal. A lower IC50 goes with greater potency. For `Cc1cc(C)c(S(=O)(=O)N[C@@H](CNC(=O)C2=NO[C@]3(C2)C[C@@H](CNc2ncc[nH]2)N(C(=O)OCc2cccnc2)C3)C(=O)O)c(C)c1`, the IC50 on Integrin alpha-V/beta-3 worked out at 32 nM; in test [1] it was 5600 nM.
On to `Cc1cc(C)c(S(=O)(=O)N[C@@H](CNC(=O)C2=NO[C@]3(CN[C@H](CNc4ncc[nH]4)C3)C2)C(=O)O)c(C)c1`, for which the IC50 is 180 nM at Integrin alpha-V/beta-3 and 1400 nM in test [1].
Take `COC(=O)N1C[C@@]2(CC(C(=O)NC[C@H](NS(=O)(=O)c3c(C)cc(C)cc3C)C(=O)O)=NO2)C[C@H]1CNc1ncc[nH]1`: the half-inhibitory concentration (IC50) at Integrin alpha-V/beta-3 was found to be 57 nM; in test [1], 7300 nM.
In the case of `Cc1cc(C)c(S(=O)(=O)N[C@@H](CNC(=O)C2=NO[C@]3(C2)C[C@@H](CNC2NC=CN2)N(C(=O)OCc2ccccc2)C3)C(=O)O)c(C)c1`, the IC50 at Integrin alpha-V/beta-3 was found to be 57 nM; in test [1], 7300 nM; against Integrin alpha-5/beta-1, 13 nM.
In the case of `Cc1cc(C)c(S(=O)(=O)N[C@@H](CNC(=O)C2=NO[C@]3(C2)C[C@@H](CNc2ncc[nH]2)N(C(=O)OCc2ccccc2)C3)C(=O)O)c(C)c1`, the 50% inhibitory concentration (IC50) on Integrin alpha-V/beta-3 came to 41 nM; in test [1] it was 34000 nM.
For `CCCCOC(=O)N1C[C@@]2(CC(C(=O)NC[C@H](NS(=O)(=O)c3c(C)cc(C)cc3C)C(=O)O)=NO2)C[C@H]1CNc1ncc[nH]1`, the IC50 at Integrin alpha-V/beta-3 was determined as 130 nM; in test [1], 11000 nM.
Take `Cc1cc(C)c(S(=O)(=O)N[C@@H](CNC(=O)C2=NO[C@]3(C2)C[C@@H](CNc2ccccn2)N(C(=O)OCc2ccccc2)C3)C(=O)O)c(C)c1`: the IC50 at Integrin alpha-V/beta-3 was 49 nM; in test [1], more than 100000 nM.
As to `COC(=O)N1C[C@@]2(CC(C(=O)NC[C@H](NS(=O)(=O)c3c(C)cc(C)cc3C)C(=O)O)=NO2)C[C@H]1CNc1nc2ccccc2[nH]1`, the IC50 was 34 nM on Integrin alpha-V/beta-3 and more than 100000 nM in test [1].
As for `Cc1cc(C)c(S(=O)(=O)N[C@@H](CNC(=O)C2=NOC3(C2)C[C@@H](CNC2NC=CN2)N(C(=O)OCc2ccccc2)C3)C(=O)O)c(C)c1` (single isomer, unassigned), the half-maximal inhibitory concentration (IC50) at Integrin alpha-V/beta-3 was more than 1000 nM; in test [1] it was 9200 nM; at Integrin alpha-5/beta-1, 1200 nM.
With `CCCCOC(=O)N1C[C@@]2(CC(C(=O)NC[C@H](NS(=O)(=O)c3c(C)cc(C)cc3C)C(=O)O)=NO2)C[C@H]1CNc1nc2ccccc2[nH]1`, the IC50 on Integrin alpha-V/beta-3 is 87 nM; in test [1], more than 100000 nM.
